Results published in publication PMC11695783 (Frontiers in Pharmacology, 2024).
Where “and” joins values, the source holds several entries; their conditions need not be identical. Identical values can stand only once.

Test: Pharmacokinetic studies in mice (intravenous and intramuscular, plasma, HPLC-MS/MS)
Type: in vivo, BALB/c mice
Design: AUClast / AUCall / AUCINF_obs / AUCINF_pred / AUCINFobs: concentration or dose not given beside the values; Tlast / Clast / AUMClast / AUMCINF_obs / AUMCINF_pred / Lambda_z / HL_Lambda_z / Cl_obs / Cl_pred / Cl_F_obs / Tlag / Cl_F_pred: unit not given here
Conditions: for plasma concentration, AV: average of mice; for plasma concentration: individual mice 1-8
Protocol: Pharmacokinetic experimental procedures of compound 16C were measured according to previous reports with some modifications ([Wang et al., 2022]). In brief, BALB/c mice were divided into two groups of eight mice each; one group was injected intravenously and the other was injected intramuscularly with compound 16C at a dose of 10 mg/kg. The dose was based on previous studies of novel pleuromutilin derivatives ([Jin et al., 2019]; [Wang et al., 2022]). Meanwhile, the dose of tiamulin approved by the European Union for intramuscular administration is 10–20 mg/kg ([EMA, 1999]). The volume of the injection was 0.1 mL/10 g. The compound 16C formulation was a filtered solution in 5% DMSO, 5% Tween-80, and 90% normal saline. Blood was obtained from eight mice via the ocular venous plexus at 0.083, 0.167, 0.25, 0.334, 0.5, 0.75, 1, 1.5, 2, 3, 4, 6, 8, and 12 h following tail intravenous or thigh Intramuscular injection. A glass capillary with a diameter of 0.3 mm was inserted into the outer canthus of the mouse, and 200 μL blood was collected using a 1.5 mL anticoagulant centrifuge tube. The blood was centrifuged at 3,000 rpm for 10 min to obtain plasma. 100 μL of plasma was aspirated for drug concentration detection, and eight parallel samples from different mice were obtained at each time point.
All pharmacokinetic experimental samples and method validation samples were added with 4 times the volume of acetonitrile and shaken for 1 min, centrifuged at high speed at 13,000× g for 10 min, and the supernatants were taken and filtered to detect the drug concentration. Some samples with high concentrations were diluted to the linear range prior to analysis.
The extracted samples were analyzed using a high-performance liquid chromatography-tandem mass spectrometry (HPLC-MS/MS) system (Agilent, Santa Clara, CA, United States) 1200 HPLC and Applied Biosystems (Waltham, MA, United States) API 4000 mass spectrometer). HPLC-MS/MS analysis using a Zorbax Eclipse XDB-C18 (4.6 × 50 mm, 3.5 μm) column (Agilent). The mobile phase A (acetonitrile) and B (water) were applied as a gradient as follows: 0–3 min: 15%–95% A and maintain from 3 min to 5 min at 95% A. 5–5.1 min: 95%–15% A and maintain from 5.1 to 10 min at 15% A. Flow rate: 500 μL/min; column temperature: 30°C and injection volume: 4 μL. The electrospray ionization (ESI) source of the mass spectrometer was operated in […], with the following ion source parameters: ion spray voltage 4,500 V, collision gas 7 psi, ion source gas 1 55 psi, ion source gas 2 40 psi, curtain gas 20 psi, source temperature 600°C. The precursor ion m/z of Compound 16C was 633.3, and the product ions m/z were 272.0 (quantifier) 286.9 and 313.0. Declustering potentials (DP) were 140, 140, and 144 V, respectively; entrance potential (EP) was 10 V; collision energy (CE) was 55, 46, and 15 V, respectively; and collision cell exit potential (CXP) was 14 V.
[…] Pharmacokinetic parameters include time to maximum concentration (Tmax), maximum concentration (Cmax), the area under the plasma concentration–time curve (AUC0-∞), clearance rate (CL), the apparent volume of distribution (Vd), bioavailability (F), elimination half-life (T1/2kel) and absorption half-life (T1/2ka).

C=C[C@]1(C)C[C@@H](OC(=O)CSc2ccc(NC(=O)Cc3ccc([N+](=O)[O-])cc3)cc2)[C@]2(C)[C@H](C)CC[C@]3(CCC(=O)[C@H]32)[C@@H](C)[C@@H]1O
plasma concentration, AV (IM, 0.083h): 409.1 ng/mL
plasma concentration, AV (IM, 0.17h): 470.8 ng/mL
plasma concentration, AV (IM, 0.25h): 496 ng/mL
plasma concentration, AV (IM, 0.33h): 490 ng/mL
plasma concentration, AV (IM, 0.5h): 449.1 ng/mL
plasma concentration, AV (IM, 0.75h): 404.2 ng/mL
plasma concentration, AV (IM, 1h): 281.2 ng/mL
plasma concentration, AV (IM, 1.5h): 246.4 ng/mL
plasma concentration (IM, 1.5h): 189 ng/mL and 266 ng/mL and 253 ng/mL and 291 ng/mL and 290 ng/mL and 328 ng/mL and 158 ng/mL and 196 ng/mL
plasma concentration, AV (IM, 2h): 158.4 ng/mL
plasma concentration (IM, 2h): 100 ng/mL and 171 ng/mL and 124 ng/mL and 153 ng/mL and 195 ng/mL and 254 ng/mL and 139 ng/mL and 131 ng/mL
plasma concentration, AV (IM, 3h): 123.2 ng/mL
plasma concentration (IM, 3h): 92.5 ng/mL and 183 ng/mL and 129 ng/mL and 115 ng/mL and 122 ng/mL and 146 ng/mL and 111 ng/mL and 87 ng/mL
plasma concentration, AV (IM, 4h): 84.54 ng/mL
plasma concentration (IM, 4h): 67.6 ng/mL and 99.6 ng/mL and 79.9 ng/mL and 104 ng/mL and 84.5 ng/mL and 117 ng/mL and 51.6 ng/mL and 72.1 ng/mL
plasma concentration, AV (IM, 6h): 37.03 ng/mL
plasma concentration (IM, 6h): 27 ng/mL and 51.8 ng/mL and 31.4 ng/mL and 43.1 ng/mL and 35.8 ng/mL and 43.3 ng/mL and 20 ng/mL and 43.8 ng/mL
plasma concentration, AV (IM, 8h): 18.45 ng/mL
plasma concentration (IM, 8h): 13.1 ng/mL and 25.3 ng/mL and 16.7 ng/mL and 19.2 ng/mL and 15 ng/mL and 22.7 ng/mL and 13 ng/mL and 22.6 ng/mL
plasma concentration, AV (IM, 12h): 6.302 ng/mL
plasma concentration (IM, 12h): 1.85 ng/mL and 6.51 ng/mL and 5.87 ng/mL and 6.37 ng/mL and 4.83 ng/mL and 6.04 ng/mL and 9.7 ng/mL and 9.25 ng/mL
AUCINF_obs (IM, individual mice): 1087.9 and 805.258 and 1373.07 and 1092.7 and 1076.67 and 1204.87 and 1450.76 and 1023.1
AUCINF_pred (IM, individual mice): 1087.68 and 805.26 and 1373.07 and 1092.68 and 1076.58 and 1204.84 and 1450.76 and 1021.5
AUC_%Extrap_obs (IM, individual mice): 3.4748% and 0.4887% and 1.3883% and 1.9994% and 1.9823% and 1.3449% and 1.2619% and 9.501%
AUC_%Extrap_pred (IM, individual mice): 3.4549% and 0.489% and 1.388% and 1.9971% and 1.9741% and 1.3423% and 1.262% and 9.3589%
AUCall (IM, individual mice): 1050.1 and 801.322 and 1354.01 and 1070.85 and 1055.33 and 1188.66 and 1432.45 and 925.896
AUClast (IM, individual mice): 1050.1 and 801.322 and 1354.01 and 1070.85 and 1055.33 and 1188.66 and 1432.45 and 925.896
AUMCINF_obs (IM, individual mice): 3193.81 and 1900.71 and 3591.01 and 2771.66 and 3099.57 and 2821.33 and 3581.57 and 4169.2
AUMCINF_pred (IM, individual mice): 3190.21 and 1900.74 and 3590.96 and 2771.26 and 3098.18 and 2820.84 and 3581.6 and 4133.86
AUMC_%Extrap_obs (IM, individual mice): 19.0405% and 2.9249% and 7.9241% and 12.3927% and 10.57% and 8.8194% and 7.6827% and 51.3426%
AUMC_%Extrap_pred (IM, individual mice): 18.949% and 2.9266% and 7.9228% and 12.3802% and 10.53% and 8.8035% and 7.6834% and 50.9267%
AUMClast (IM, individual mice): 2585.7 and 1845.12 and 3306.46 and 2428.17 and 2771.94 and 2572.51 and 3306.41 and 2028.62
Cl_F_obs (IM, individual mice): 9192.03 and 0.0124 and 0.0073 and 0.0092 and 0.0093 and 0.0083 and 0.0069
Cl_F_pred (IM, individual mice): 0.0124 and 0.0073 and 0.0092 and 0.0093 and 0.0083 and 0.0069
Clast (IM, individual mice): 9.25 and 1.85 and 6.51 and 5.87 and 6.37 and 4.83 and 6.04 and 9.7
Cmax (IM, individual mice): 520 and 469 and 730 and 550 and 410 and 609 and 667 and 531
HL_Lambda_z (IM, individual mice): 2.8327 and 1.4744 and 2.0296 and 2.5798 and 2.3224 and 2.3255 and 2.1008 and 6.9461
Tlag (IM, individual mice): 0
Tlast (IM, individual mice): 12
Lambda_z (IM, individual mice, non-compartmental analysis): 0.2447 and 0.4701 and 0.3415 and 0.2687 and 0.2985 and 0.2981 and 0.3299 and 0.0998
MRTINF_obs (IM, individual mice, in h): 2.9358 and 2.3604 and 2.6153 and 2.5365 and 2.8788 and 2.3416 and 2.4688 and 4.0751
MRTINF_pred (IM, individual mice, in h): 2.9331 and 2.3604 and 2.6153 and 2.5362 and 2.8778 and 2.3413 and 2.4688 and 4.0469
MRTlast (IM, individual mice, in h): 2.4623 and 2.3026 and 2.442 and 2.2675 and 2.6266 and 2.1642 and 2.3082 and 2.191
Tmax (IM, individual mice, in h): 0.25 and 0.33 and 0.5 and 0.17 and 0.75
plasma concentration, AV (IV, 0.083h): 4.976 ng/mL
